Where a SMILES comes first, the peptide text is derived from it. Where no end group is shown, it is not given here. [ ]: non-standard residue; d: D form. d(hArg(Et2)) = CCN=C(NCC)NCCCC[C@@H](N)C(=O)O; hArg(Et2) = CCN=C(NCC)NCCCC[C@H](N)C(=O)O; dPhe(4-Cl) = N[C@H](Cc1ccc(Cl)cc1)C(=O)O; d2Nal = N[C@H](Cc1ccc2ccccc2c1)C(=O)O; d3Pal = N[C@H](Cc1cccnc1)C(=O)O
What was measured:
[1] = tested on: INSL3 message; experiment: Gonadotropin deprivation model: testis INSL3 mRNA (Northern blot); format: in vivo, rat; details: FIG. 4B
Method: (§1) Male Sprague-Dawley rats at 28 days of age were treated subcutaneously with GnRH antagonist (250 μg/kg/day) to suppress pituitary gonadotropin secretion. […] Animals were killed 5 days after initial treatment and organ weight determined. Testes were stored at −70° C. before RNA or DNA extraction or fixed in Bouin's solution for in situ labeling of DNA ends.

[2] = tested on: testis; format: in vivo, rat
Method: C) Analysis of apoptotic DNA fragmentation in testes using 3′-end DNA labeling with the terminal transferase, followed by gel fractionation and autoradiography. D) In situ staining of apoptotic DNA fragmentation in seminiferous tubules using the TUNNEL method.
as §1

[3] = tested on: male germ cells; experiment: Gonadotropin deprivation model: testis apoptotic DNA fragmentation; format: in vivo, rat
Method: as §1
DNA from whole testis was isolated and quantitated with spectrophotometry at 260 nm. Aliquots of DNA (500 ng) from each sample were labeled at 3′-ends with 32P-dideoxy-ATP (3,000 Ci/mmol: Amersham. Arlington Heights, Ill.) using terminal transferase (25 U/sample; Boehringey-Mannheim, Indianapolis, Ind.) as described. Labeled samples were fractionated through 2% agarose gels. After electrophoresis, gels were dried for 2 h in a slab-gel dryer without heat and exposed to Kodak X-OMAT AR films (Eastman Kodak Co., Rochester, N.Y.) at −70 C. After autoradiography, portions of each lane corresponding to DNA less than 10 kilobases (kb) were isolated and counted in a y-spectrometer for estimating the degree of intenucleosomal DNA fragmentation. For in situ DNA 3′-end labeling, fixed testicular tissues were embedded in paraffin, and cut in 3 μm sections. To detect apoptotic DNA fragmentation, the in situ cell death detection kit (Roche Diagnostics, Mannheim, Germany) was used according to manufacturer's instruction and sections counterstained with hematoxylin.

[4] = tested on: cumulus-enclosed oocytes; experiment: Germinal vesicle breakdown in cultured cumulus-enclosed oocytes; format: cell-based, rat; details: for oocyte maturation (germinal vesicle breakdown): cultured cumulus-enclosed oocytes from preovulatory follicles, FIG. 1D
Method: (§2) Cumulus-enclosed oocytes (CEO) were collected and cultured as described (Vaknin et al. PMID: 11133687). Briefly, female rats at 26 d of age were injected with 15 IU pregnant mare serum gonadotropin (PMSG). After 48-50 h, ovaries were dissected in Leivovitz's L-15 medium (Invitrogen Corp., Carlsbad, Calif.) supplemented with 5% fetal bovine serum and 100 μg/ml of penicillin and streptomycin. The CEOs were collected by puncturing the largest ovarian follicles in the L15 medium containing 0.25 mM of MIX within 20 min, washed twice in L15 medium without MIX and transfer to test medium. The CEO were cultured with or without different doses of rat INSL3 in L15 medium without both FBS and IBMX. For controls, the CEOs were cultured in L15 medium with IBMX. At the end of culture, the occurrence of germinal vesicle breakdown (GVBD) in oocyte was examined after removing cumulus cells surrounding CEO by a small-bore pipette under Hoffman modulation contrast microscopy (Nikon Inc., Tokyo, Japan). For preovulatory follicles, follicles were excised from the ovary after PMSG treatment for 48 h. The follicles, 20-30 per vial, were cultured with or without different doses of rat INSL3 or LH in L15 medium without FBS. The vials were flushed at the start of the culture with O2/N2 (1/1) and cultured at 37C with gently shaking. After culture, individual CEO was dissected from each follicle to examine the occurrence of GVBD. For cAMP determination, 20 to 30 denuded oocytes were cultured with or without rat INSL3 (10 nM) in L15 medium containing 10 μM of cilostamide with or without 50 μM of forskolin. After treatment, oocytes were collected in 2 μl of medium, frozen and thawed to break the cells before acetylation of samples with triethylamine and acetic anhydride (3:1). Intra-oocyte cyclic AMP levels were determined by radioimmunoassay as previously described (Davoren, Hsuch, 1985).

[5] = molecular target: T1, recombinant LGR8 (Homo sapiens, UniProt Q8WXD0); details: 293T cells expressing recombinant LGR8; cited from earlier work
T1 construct: expressed in transfected cells; host or cells: human 293T cells, calcium phosphate transfection
T1 sequence (Q8WXD0 whole entry): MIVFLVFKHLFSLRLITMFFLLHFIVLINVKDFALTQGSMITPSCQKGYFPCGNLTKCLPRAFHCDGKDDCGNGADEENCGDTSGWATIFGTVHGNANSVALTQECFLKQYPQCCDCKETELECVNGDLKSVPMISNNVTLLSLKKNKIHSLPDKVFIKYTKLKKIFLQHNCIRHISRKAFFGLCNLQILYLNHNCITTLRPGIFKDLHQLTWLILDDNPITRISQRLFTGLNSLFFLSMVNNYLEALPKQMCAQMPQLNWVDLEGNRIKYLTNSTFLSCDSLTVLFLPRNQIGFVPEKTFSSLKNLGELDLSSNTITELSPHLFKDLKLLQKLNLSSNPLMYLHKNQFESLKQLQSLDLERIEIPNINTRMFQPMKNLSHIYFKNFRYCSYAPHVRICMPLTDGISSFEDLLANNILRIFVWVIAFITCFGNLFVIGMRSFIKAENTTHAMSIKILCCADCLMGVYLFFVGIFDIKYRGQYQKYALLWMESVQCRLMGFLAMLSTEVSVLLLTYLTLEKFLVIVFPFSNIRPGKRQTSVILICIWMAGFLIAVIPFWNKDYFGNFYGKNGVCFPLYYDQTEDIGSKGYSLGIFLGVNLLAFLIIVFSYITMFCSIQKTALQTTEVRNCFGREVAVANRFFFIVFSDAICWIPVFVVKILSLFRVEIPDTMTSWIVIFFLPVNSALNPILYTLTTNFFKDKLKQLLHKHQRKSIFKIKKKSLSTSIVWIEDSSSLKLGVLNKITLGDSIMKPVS

[6] = tested on: gubernacular cells; details: cited from earlier work
[7] = tested on: seminiferous tubular cells; experiment: cAMP production by seminiferous tubular cells; format: cell-based, rat; details: FIG. 2D
Method: Seminiferous tubular cells were treated with different hormones or forskolin (FSK) for 12 h before cAMP determination. Some cells were also pretreated with PT before hormonal treatment (filled circles) to suppress Gi activity. B: basal.
Seminiferous tubular cells were isolated by the method of Nagao (1989) In Vitro Cell Dev Biol 25:1088-1098, with modifications. Briefly, testes were decapsulated and incubated for 15 minutes in PBS containing 0.25% collagenase with occasional shaking. After collecting interstitial cells released from the preparation, seminiferous tubules were washed, and incubated with 0.25% trypsin to disperse tubular cells. The resulting cell suspension was filtered through 100 μm nylon mesh to remove cell aggregates and tissue debris, after which the tubular cells were collected by centrifugation.
Total cAMP in each well was measured in triplicate with primary cultured cells by a specific radioimmunoassay as previously described by Davoren and Hsuch (1985) Biol Reprod 33:37-52. All experiments were repeated at least four times.

[8] = tested on: preovulatory follicles; experiment: Oocyte maturation (GVBD) in cultured intact preovulatory follicles; format: cell-based, rat
Method: as §2, with “Briefly,” for “Cumulus-enclosed oocytes (CEO) were collected and cultured as described (Vaknin et al. PMID: 11133687). Briefly,”, “For preovulatory follicles, follicles were excised from the ovary after PMSG treatment for 48 h. The follicles, 20-30 per vial, were cultured with or without different doses of rat INSL3 or LH in L15 medium without FBS.” left out, “(3:1).” for “(3:1). Intra-oocyte cyclic AMP levels were determined by radioimmunoassay as previously described (Davoren, Hsuch, 1985).”

[9] = tested on: oocytes of preovulatory follicles; experiment: In vivo oocyte maturation after intrabursal injection in PMSG-primed rats; parameters: species or system rat; details: FIG. 3C
Method: To study the effect of INSL3 on oocyte maturation in vivo, intrabursal injection was performed (Vaknin et al. PMID: 11133687). Immature PMSG-treated rats were lightly anesthetized by ether, and one of the ovaries was exteriorized through a small lumbosacral incision. Rat INSL3, dissolved in 100 μl of PBS, was injected through a 30-gauge needle threaded into the ovarian bursa via the adjoining fat pad. After injection, the ovary was replaced into the abdominal cavity, and skin was clipped. Eight hours later, CEOs were collected by puncturing the largest ovarian follicles to examine the occurrence of oocyte GVBD.

[10] = tested on: oocyte; experiment: Gonadotropin induction of ovulation with pertussis toxin co-treatment

CCN=C(NCC)NCCCC[C@H](NC(=O)[C@H](CC(C)C)NC(=O)[C@@H](CCCCNC(=NCC)NCC)NC(=O)[C@H](Cc1ccc(O)cc1)NC(=O)[C@H](CO)NC(=O)[C@@H](Cc1cccnc1)NC(=O)[C@@H](Cc1ccc(Cl)cc1)NC(=O)[C@@H](Cc1ccc2ccccc2c1)NC(C)=O)C(=O)N1CCC[C@H]1C(=O)N[C@H](C)C(N)=O [GnRH antagonist, ganirelix acetate] (Ac-[d2Nal][dPhe(4-Cl)][d3Pal]SY[d(hArg(Et2))]L[hArg(Et2)]P[dA]-NH2)
testis INSL3 message levels [1]: decreased INSL3 message levels
testis weight ([2]; immature rats, GnRH antagonist alone, five days, FIG. 4A): decreased testis weight
weight change in kidney or heart ([2]; rat, in vivo): no weight change in kidney or heart was detected
in situ staining of DNA fragments in seminiferous tubules ([3]; GnRH antagonist alone, FIG. 4D panel e): the majority of tubules showed labeled cells corresponding to meiotic pachytene spermatocytes and postmeiotic spermatids
apoptotic DNA fragmentation in testis ([3]; GnRH antagonist alone, internucleosomal DNA fragmentation, FIG. 4C): increased apoptotic DNA fragmentation

CC(C)Cn1c(=O)n(C)c(=O)c2[nH]cnc21 [MIX, reference compound]
oocyte maturation (germinal vesicle breakdown) [4]: completely blocked oocyte maturation

INSL3: Insulin-like hormone superfamily member with B chain and A chain; rat INSL3 chemically synthesized; ligand of LGR8 (chain 1 QPPEARAKLCGHHLVRALVRVCGGPRWSPEA; chain 2 SVATNAVHRCCLTGCTQQDLLGLCPH; ends and bridges not checked; cysteine pairing not given here)
effect on testis weight decrease caused by GnRH antagonist ([2]; co-treatment with GnRH antagonist, five days, FIG. 4A): partially blocked
cAMP production [5]: stimulatory effects
cAMP production [6]: stimulatory effects
basal cAMP production ([7]; INSL3 alone, 12 h): basal cAMP production was not affected
cAMP increases induced by forskolin ([7]; INSL3 with forskolin, 12 h): prevented cAMP increases induced by forskolin in a dose-dependent manner
cAMP levels stimulated by FSH ([7]; co-treatment of INSL3 with FSH): did not alter cAMP levels
oocyte maturation ([8]; intact preovulatory follicles, FIG. 1F): induced oocyte maturation in a dose-dependent manner
apoptosis induced by GnRH antagonist (internucleosomal DNA fragmentation) ([3]; co-treatment with GnRH antagonist, FIG. 4C): blocked apoptosis
in situ staining of DNA fragments in seminiferous tubules ([3]; co-treatment with GnRH antagonist, FIG. 4D panel f): blocked the apoptosis-inducing action of the GnRH antagonist
oocyte maturation (germinal vesicle breakdown) [4]: further augmented oocyte maturation in a dose-dependent manner
time after culture at which augmentation of oocyte maturation was evident ([4]; time-course, cumulus-enclosed oocytes, FIG. 1E): 2 h
oocyte maturation (germinal vesicle breakdown in preovulatory follicles) ([9]; 8 h after intrabursal injection): induced oocyte maturation
follicle rupture ([9]; intrabursal treatment): not follicle rupture

pertussis toxin
effect on the suppressive effect of INSL3 on cAMP ([7]; pertussis toxin pretreatment): suppressive effect of INSL3 was blocked
effect on INSL3 induction of oocyte maturation ([8]; pertussis toxin with INSL3, FIG. 1G): partially blocked the INSL3 induction of oocyte maturation
effect on LH induction of oocyte maturation ([8]; pertussis toxin with LH, FIG. 1G): partially blocked the LH induction of oocyte maturation at lower (50 and 100 ng/ml), but not higher, doses of LH
follicle rupture [10]: without affecting follicle rupture
gonadotropin induction of oocyte maturation [10]: blocks the gonadotropin induction of oocyte maturation

Reference: patent US20050079180A1, “Manipulatin of oocyte maturation and male germ cell survival” (priority 2003, published 2005)
